Measured values published in patent publication US8536140B2, “Methods for treating inflammatory bowel disease” (MTI Meta Tech Inc., priority 2004, dated 2013).
Values belong to the compound of their own block, whether it stands above or below them.

Experiments:
rat intestine = details: dietary, rat intestine in vivo; cited from earlier work
[1] = Distribution of ganglioside to the intestine (discussion)
CaCo-2 cells [2] = assay: Lactate dehydrogenase (LDH) release cytotoxicity assay; format: cell-based, human
Protocol: The human colon cancer cell line, CaCo-2, was obtained from American Type Culture Collection (Manassas, Va.) and was grown (passage 50-65) under standard incubator conditions (humidified atmosphere, 5% CO2, 37° C.) as adherent monolayer cultures in T-flasks containing Earle's minimum essential medium (EMEM). The cell culture growth medium (pH 7.2) was supplemented with 10% (v/v) fetal bovine serum, 1% (v/v) antibiotic/antimycotic, 26 mM sodium bicarbonate, 10 mM HEPES and 1 mM pyruvic acid. Media was changed every 2-3 days and cell density and viability was assessed with a hemocytometer using the trypan blue dye exclusion method.
Human intestine CaCo-2 cells were seeded at a density of 400,000 cells/ml on a 24 well plate. At confluence, cells were switched into EMEM-4 (4% FBS) and treated with a range of GD3 concentrations (0-64 μg/ml) similar or higher than the amount in human milk on the apical side for 24 h under standard incubator conditions. […] In brief, cell lysates and supernatants were incubated with an enzyme/substrate solution for 30 min at room temperature and the absorbance of colored formazan product was measured at 490 nm with a microtiter plate reader (Molecular Devices, Sunnyvale, Calif.). Absorbance background reading under kit conditions was less than 0.075. Data were expressed as percentage LDH release from cells. […]

CaCo-2 cells [3] = assay: Apical and basolateral GD3 uptake, retention, transfer and metabolism in CaCo-2 cell monolayers on trans-well plates; format: in vitro ADME, human
Protocol: Polarized, differentiated monolayers of CaCo-2 cells grown on trans-well plates were used as a model to study apical and basolateral GD3 uptake. CaCo-2 cells were seeded at a density of 2.5×10^7 cells/ml on 0.4 μm pore inserts in 24 well trans-well plates (Corning Inc., Acton, Mass.). The apical (upper) and basolateral (lower) compartments contained 100 μl and 600 μl of EMEM-10, respectively. CaCo-2 cells were grown to confluence and were differentiated twenty days prior to delivering gangliosides. After 20 days, CaCo-2 cells were differentiated and polarized with intact tight junctions, as confirmed by alkaline phosphatase activity and trans-epithelial resistance measurements (data not shown). On day 21, CaCo-2 cells were transferred into Hank's MEM-4, a low serum, low calcium medium containing no antibiotics to limit serum and calcium interference with ganglioside uptake and antibiotic effects on tight junction permeability. Serum present in the media aided in GD3 solubilization and micelle formation during sonication. CaCo-2 cells were incubated under standard conditions in the absence (control, MEM-4 alone) or presence of purified ganglioside GD3 in MEM-4 for 6, 24 and 48 h at a concentration of 5 or 10 μg/ml. The time frame for exposing human intestine CaCo-2 cells to ganglioside GD3 was chosen to be 6-48 h as previous work on ganglioside GM1 uptake by cultured cells predicts slow and incomplete ganglioside absorption from the apical side. […] The ganglioside treated cells received GD3 on either the BBM (apical) side or the BLM side of CaCo-2 cell monolayers. GD3 delivery on the apical and BLM side of CaCo-2 cells was used as an in vitro model for enteral and intravenous nutrient delivery, respectively. After GD3 incubation, apical and BLM supernatants were collected and cells were washed with PBS and Tris buffer containing EDTA. CaCo-2 cells from each trans-well insert were trypsinized, pooled together in Tris-mannitol buffer and sonicated to form cell lysates. Cell lysates were saved for protein and ganglioside analysis.
Total and individual gangliosides were measured with a colorimetric sialic acid assay as ganglioside bound N-acetyl neuraminic acid (GG-NANA). An aliquot of purified ganglioside sample was dried under N2 gas and dissolved with 0.5 ml of ddH20 and 0.5 ml of resorcinol-HCl in screw-capped Teflon-lined tubes. The purple-blue color developed by reacting resorcinol reagent with ganglioside sialic acid at 160° C. for 8 min was extracted into butylacetate/butanol (85:15, v/v) solvent. Optical density was read by a spectrophotometer at 580 nm. For quantitative analysis, N-acetyl neuraminic acid (also known as sialic acid) was used as a standard.
The following equations were used to calculate the percentage and amount of ganglioside GD3 taken up, retained, transferred and metabolized by human intestinal CaCo-2 cells following brush border membrane or basolateral membrane GD3 delivery. For all calculations the values obtained from the control were subtracted off the test groups to correct for small levels of ganglioside present in the serum and cells. In Equation 1, the % uptake=[(amount delivered-amount remaining)*100%] divided by the amount delivered. In Equation 2, the % retention=[amount cell*100%] divided by the amount uptake. In Equation 3, the % transfer=[amount receiving compartment*100%] is divided by the amount uptake. In Equation 4, the % metabolism=[amount uptake−amount retained−amount transferred*100%] divided by the amount uptake.
Sample size determination for a one tailed comparison at 80% power to detect a 4-5 fold increase in GM1 levels in skin fibroblasts (0.2 nmol/mg protein to 0.9 nmol/mg protein, P<0.05) requires a sample size of 3. All data are expressed as the mean±the standard error of the mean for a sample size of n=4 (4 different cell passages) for intestine cell sensitivity experiments and n=3-4 (3-4 different cell passages) for ganglioside GD3 absorption experiments. […]

Giardia cells = details: after 2 h, cited from earlier work

Compound: CC(C)CCC[C@@H](C)[C@H]1CC[C@H]2[C@@H]3CC=C4C[C@@H](O)CC[C@]4(C)[C@H]3CC[C@]12C [cholesterol]
- Apical uptake efficiency (rat intestine): 50%

- Fraction that could have been distributed to the intestine [1]: ≤ 47.4%
Compound: II^3 NeuAc-LacCer [GM3]

Compound: sphingomyelin
- Apical uptake efficiency (rat intestine): 22-43%

- Apical GD3 uptake efficiency, maximum (CaCo-2 cells [3]; 10 μg/ml apical, after 24 h): 73%
- GD3 uptake, basolateral compared to apical delivery (CaCo-2 cells [3]; 10 μg/ml, 6, 24 and 48 h): faster and more efficient
- Time course of GD3 uptake (CaCo-2 cells [3]; 10 μg/ml, 6, 24 and 48 h at 37° C.): rapid and linear for the first 6 h
- Amount of GD3 taken up from the basolateral membrane side when concentration doubled (CaCo-2 cells [3]; 5 or 10 μg/ml, 6 h at 37° C.): twice as high
- Percent of GD3 taken up that was metabolized (CaCo-2 cells [3]; after 6 h apical exposure, 10 μg/ml): 96%
- Drop of the percentage GD3 metabolized (CaCo-2 cells [3]; after 24 h apical exposure): 32%
- GD3 incorporated (CaCo-2 cells [3]; apical delivery of 24 μg, after 24 h): 18.5 µg
- Fate of basolateral membrane GD3 uptake (CaCo-2 cells [3]; following 24 h exposure, 10 μg/ml): completely metabolized
Compound: II^3 (NeuAc)2-LacCer [GD3]
- LDH release from cells (CaCo-2 cells [2]; 64 μg/ml, 24 h): significant release of LDH
- Concentration at which toxicity to enterocytes begins (CaCo-2 cells [2]; after 24 h exposure): greater than 32 μg/ml

Compound: II^3 NeuAc-GgOse4Cer [GM1]
- Fraction that could have been distributed to the intestine [1]: at most 6%
- Ganglioside incorporated (Giardia cells): 2.4 µg
- Maximal uptake efficiency (Giardia cells; same amount of ganglioside): 10%
